Reference: US11020395B2, “Cycloalkyl substituted triazole compounds as agonists of the APJ receptor” (AMGEN INC., priority 2016, dated 2021)
pEC50: −log10 of the molar value.

Experiments:
[1] = system: heart failure rats; assay: Cardiac function with APJ small molecule agonists in the presence of ACE inhibitor captopril in heart failure rats in vivo; design: species or system rat; conditions: captopril alone, acute settings
Description: The interaction between […] (ACE2) and Apelin biology is complicated. To investigate the interaction between the Apelin-APJ and ACE signalling pathways, we examined the improvement in cardiac function with APJ small molecule agonists in the presence of ACE inhibitor captopril in heart failure rats in vivo. […] However, in the presence of an APJ agonist, there was a shift in potency to the left with marked improvement in contractility and ejection fraction without changes in heart rate. These findings provide a new reference for the understanding of the regulation of ACE2 for the renin angiotensin aldosterone system (RAAS), independent of AT1R signaling and offer new potential drug targets for the treatment of diseases such as hypertension and heart failure. This work clearly establishes that combination of an agonist of the APJ receptor with an ARB such as losartan and/or with an ACE inhibitor such as captopril which may play an important role in providing greater efficacy in treating heart failure patients, for example in improving contractility and ejection fraction without changing the heart rate.

[2] = biological target: human APJ-AT1R double stable CHO cell line (Homo sapiens (Human), UniProt P35414); assay: IP1 accumulation (TR-FRET) assay with AngII in human APJ-AT1R double stable CHO cell line; format: cell-based; conditions: in the presence of AngII and APJ small molecule agonists
human APJ-AT1R double stable CHO cell line, sequence (P35414 whole entry): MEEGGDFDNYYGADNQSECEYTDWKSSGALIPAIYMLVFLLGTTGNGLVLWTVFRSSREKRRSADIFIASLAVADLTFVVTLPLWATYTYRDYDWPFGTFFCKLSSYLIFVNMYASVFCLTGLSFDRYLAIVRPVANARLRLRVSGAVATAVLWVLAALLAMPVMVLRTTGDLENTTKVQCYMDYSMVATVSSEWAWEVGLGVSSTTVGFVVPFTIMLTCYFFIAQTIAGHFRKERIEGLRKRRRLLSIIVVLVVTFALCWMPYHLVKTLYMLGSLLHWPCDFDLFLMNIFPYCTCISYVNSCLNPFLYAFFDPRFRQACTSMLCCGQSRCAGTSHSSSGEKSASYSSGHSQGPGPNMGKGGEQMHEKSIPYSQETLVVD
Procedure: The function of the inositol phosphate accumulation (IP1) was measured by Time-resolved fluorescence resonance energy (TR-FRET) at 620 nm and 665 nm respectively.
The plate was sealed and incubated for 1 hour.

[3] = biological target: human APJ receptor (Homo sapiens (Human), UniProt P35414); assay: [35S]GTPγS binding assay on membranes from CHO cells stably expressing human APJ receptor; format: biochemical; conditions: [35S]GTPγS SPA, read-out: Activity hAPJ SPA EC50 IP
human APJ receptor, sequence (P35414 whole entry): as above
Procedure, shortened: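 Agonist-stimulated [35S]GTPγS binding measured on membranes of a stable human APJ CHO line, 90 min at room temperature, with GDP, MgCl2 and NaCl levels optimized beforehand. Means of independent runs fitted by non-linear regression to give EC50.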

Row | SMILES | pEC50 [3] | further results
1 | C[C@H](CS)C(=O)N1CCC[C@H]1C(=O)O [Captopril, captopril] | – | contractility or ejection fraction [1]: does not show a marked improvement
2 | CCCCc1nc(Cl)c(CO)n1Cc1ccc(-c2ccccc2-c2nn[nH]n2)cc1 [losartan] | – | effect on APJ agonist-induced positive cooperativity [2]: relieved this cooperativity
3 | COc1cccc(OC)c1-n1c(NS(=O)(=O)[C@@H](C)[C@H](OC)c2ncc(Cl)cn2)nnc1[C@H]1C[C@@](C)(F)C1 (single isomer, unassigned) [Example 195.0, (1R,2S)-1-(5-chloropyrimidin-2-yl)-N-(4-(2,6-dimethoxyphenyl)-5-((1s,3R)-3-fluoro-3-methylcyclobutyl)-4H-1,2,4-triazol-3-yl)-1-methoxypropane-2-sulfonamide or (1R,2S)-1-(5-chloropyrimidin-2-yl)-N-(4-(2,6-dimethoxyphenyl)-5-((1r,3S)-3-fluoro-3-methylcyclobutyl)-4H-1,2,4-triazol-3-yl)-1-methoxypropane-2-sulfonamide] | 8.59 | –
4 | COc1cccc(OC)c1-n1c(NS(=O)(=O)[C@@H](C)[C@@H](OC(C)C)c2ncc(C)cn2)nnc1[C@@H]1CCC[C@@H]1OC (single isomer, unassigned) [Example 234.0] | 7.92 | –
5 | COc1cccc(OC)c1-n1c(NS(=O)(=O)[C@@H](C)[C@H](OC)c2ncc(Cl)cn2)nnc1[C@H]1C[C@H](C(F)(F)F)C1 (single isomer, unassigned) [Example 149.0, (1R,2S)-1-(5-chloropyrimidin-2-yl)-N-(4-(2,6-dimethoxyphenyl)-5-((1r,3S)-3-(trifluoromethyl)cyclobutyl)-4H-1,2,4-triazol-3-yl)-1-methoxypropane-2-sulfonamide or (1R,2S)-1-(5-chloropyrimidin-2-yl)-N-(4-(2,6-dimethoxyphenyl)-5-((1s,3R)-3-(trifluoromethyl)cyclobutyl)-4H-1,2,4-triazol-3-yl)-1-methoxypropane-2-sulfonamide] | 8.38 | –
6 | COCC(COC)n1c(NS(=O)(=O)[C@@H](C)[C@H](OC)c2ncc(Cl)cn2)nnc1[C@H]1C[C@H](CO)C1 (single isomer, unassigned) [Example 131.0, (1R,2S)-1-(5-chloropyrimidin-2-yl)-N-(4-(1,3-dimethoxypropan-2-yl)-5-((1r,3S)-3-(hydroxymethyl)cyclobutyl)-4H-1,2,4-triazol-3-yl)-1-methoxypropane-2-sulfonamide or (1R,2S)-1-(5-chloropyrimidin-2-yl)-N-(4-(1,3-dimethoxypropan-2-yl)-5-((1s,3R)-3-(hydroxymethyl)cyclobutyl)-4H-1,2,4-triazol-3-yl)-1-methoxypropane-2-sulfonamide] | 6.96 | –
7 | COc1ncnc(OC)c1-n1c(NS(=O)(=O)[C@@H](C)[C@H](OC)c2ncc(Cl)cn2)nnc1C1CC2(COC2)C1 [Example 240.0, (1R,2S)-1-(5-chloro-2-pyrimidinyl)-N-(4-(4,6-dimethoxy-5-pyrimidinyl)-5-(2-oxaspiro[3.3]heptan-6-yl)-4H-1,2,4-triazol-3-yl)-1-methoxy-2-propanesulfonamide] | 7.15 | –
8 | CO[C@H](c1ncc(Cl)cn1)[C@H](C)S(=O)(=O)Nc1nnc([C@H]2C[C@H](CO)C2)n1C(C)C (single isomer, unassigned) [Example 136.0, (1R,2S)-1-(5-chloro-2-pyrimidinyl)-N-(5-trans-3-(hydroxymethyl)cyclobutyl)-4-(2-propanyl)-4H-1,2,4-triazol-3-yl)-1-methoxy-2-propanesulfonamide or (1R,2S)-1-(5-chloro-2-pyrimidinyl)-N-(5-(cis-3-(hydroxymethyl)cyclobutyl)-4-(2-propanyl)-4H-1,2,4-triazol-3-yl)-1-methoxy-2-propanesulfonamide] | 5.49 | –
